The record followed here is patent publication US20170121344A1 (Siga Technologies, Inc., priority 2009, published 2017).

Counter-ions that a name gives are not always drawn.

As usually defined, the EC50 is the concentration at which the effect is half-maximal.

For the first assay, the system named is Dengue-2 (Strain New Guinea C). Briefly: Viral yield assay against Dengue-2 in Vero cells. The format is cell-based, Dengue virus. Particulars: Dengue virus, Vero, 48 h, read-out: Activity (EC50 class) against Dengue-2 Virus in Vero cells. As to the method: Compounds that were active in the primary screen were tested for activity in viral yield assays. […] Vero cells in 12-well plates were infected with dengue-2 virus at a multiplicity of infection (MOI) of 0.1, treated with compound (or DMSO as a control), incubated at 37° C., harvested 48 hours post infection and titered on Vero cells as described above. The EC50 was calculated through ExcelFit. Activities against other serotypes of dengue virus were determined in a similar way.
With `CCN1CCc2nc3sc(C(=O)Nc4cccnc4Cl)c(N)c3cc2C1` [Compound 41, 3-Amino-6-ethyl-5,6,7,8-tetrahydro-thieno[2,3-b][1,6]naphthyridine-2-carboxylic acid (2-chloro-pyridin-3-yl)-amide], the half-maximal effective concentration (EC50) is under 5 µM.
Regarding `Cc1csc(NC(=O)c2sc3nc(-c4cccs4)ccc3c2N)n1` [Compound 55, 3-Amino-6-thiophen-2-yl-thieno[2,3-b]pyridine-2-carboxylic acid (4-methyl-thiazol-2-yl)amide], the EC50 was under 5 µM.

Staying with this assay, now noted: Dengue virus; Vero cells, MOI 0.1, harvested 48 hours post infection; read-out: Activity (EC50 class) against Dengue-2 Virus in Vero cells.
On to `CN1CCc2nc3sc(C(=O)Nc4ccc(C(C)(C)C)cc4)c(N)c3cc2C1` [Compound 35, 3-Amino-6-methyl-5,6,7,8-tetrahydro-thieno[2,3-b][1,6]naphthyridine-2-carboxylic acid (4-tert-butyl-phenyl)-amide], for which the concentration for a half-maximal effect (EC50) was under 5 µM.
With `CN1CCc2nc3sc(C(=O)Nc4ccc(Cl)cc4)c(N)c3c(-c3cccs3)c2C1` [Compound 36, 3-Amino-6-methyl-4-thiophen-2-yl-5,6,7,8-tetrahydro-thieno[2,3-b][1,6]naphthyridine-2-carboxylic acid (4-chloro-phenyl)-amide], the EC50 is under 5 µM.
With `COc1ccc(Cl)cc1NC(=O)c1sc2nc3c(cc2c1N)CN(C)CC3` [Compound 37, 3-Amino-6-methyl-5,6,7,8-tetrahydro-thieno[2,3-b][1,6]naphthyridine-2-carboxylic acid (5-chloro-2-methoxy-phenyl)-amide], the half-maximal effective concentration (EC50) was under 5 µM.
For `CN1CCc2nc3sc(C(=O)Nc4ccccc4F)c(N)c3cc2C1` [Compound 38, 3-Amino-6-methyl-5,6,7,8-tetrahydro-thieno[2,3-b][1,6]naphthyridine-2-carboxylic acid (2-fluoro-phenyl)-amide], the half-maximal effective concentration (EC50) is under 5 µM.
Take `Cc1csc(NC(=O)c2sc3nc4c(cc3c2N)CN(C)CC4)n1` [Compound 39, 3-Amino-6-methyl-5,6,7,8-tetrahydro-thieno[2,3-b][1,6]naphthyridine-2-carboxylic acid (4-methyl-thiazol-2-yl)-amide]: the EC50 is under 5 µM.
Regarding `CCN1CCc2nc3sc(C(=O)Nc4ccccc4OC(F)(F)F)c(N)c3cc2C1` [Compound 40, 3-Amino-6-ethyl-5,6,7,8-tetrahydro-thieno[2,3-b][1,6]naphthyridine-2-carboxylic acid (2-trifluoromethoxy-phenyl)-amide], the concentration giving a half-maximal response (EC50) is under 5 µM.
As for `CN1CCc2nc3sc(C(=O)Nc4ccc(C(F)(F)F)cc4)c(N)c3cc2C1` [Compound 42, 3-Amino-6-methyl-5,6,7,8-tetrahydro-thieno[2,3-b][1,6]naphthyridine-2-carboxylic acid (4-trifluoromethyl-phenyl)-amide], the EC50 was under 5 µM.
Regarding `CC(=O)c1ccc(NC(=O)c2sc3nc4c(cc3c2N)CN(C)CC4)cc1` [Compound 43, 3-Amino-6-methyl-5,6,7,8-tetrahydro-thieno[2,3-b][1,6]naphthyridine-2-carboxylic acid (4-acetyl-phenyl)-amide], the EC50 was under 5 µM.
`CN1CCc2nc3sc(C(=O)Nc4cc(Cl)ccc4Cl)c(N)c3cc2C1` [Compound 44, 3-Amino-6-methyl-5,6,7,8-tetrahydro-thieno[2,3-b][1,6]naphthyridine-2-carboxylic acid (2,5-dichloro-phenyl)-amide]: the EC50 is under 5 µM.
Regarding `Cc1ccc(NC(=O)c2sc3nc4c(cc3c2N)CN(C)CC4)cc1Cl` [Compound 45, 3-Amino-6-methyl-5,6,7,8-tetrahydro-thieno[2,3-b][1,6]naphthyridine-2-carboxylic acid (3-chloro-4-methyl-phenyl)-amide], the concentration giving a half-maximal response (EC50) is under 5 µM.
Regarding `CN1CCc2nc3sc(C(=O)Nc4cccnc4Cl)c(N)c3cc2C1` [Compound 46, 3-Amino-6-methyl-5,6,7,8-tetrahydro-thieno[2,3-b][1,6]naphthyridine-2-carboxylic acid (2-chloro-pyridin-3-yl)-amide], the EC50 is under 5 µM.
For the molecule `CC(NC(=O)c1sc2nc3c(cc2c1N)CN(C)CC3)[C@]12C[C@H]3C[C@H](C[C@H](C3)C1)C2` (stereo partly drawn) [Compound 47, 3-Amino-6-methyl-5,6,7,8-tetrahydro-thieno[2,3-b][1,6]naphthyridine-2-carboxylic acid (1-adamantan-1-yl-ethyl)-amide], the 50% effective concentration (EC50) is under 5 µM.
The same measure, in the same setting: the result for `CN1CCc2nc3sc(C(=O)Nc4ccccc4)c(N)c3cc2C1` [Compound 48, 3-Amino-6-methyl-5,6,7,8-tetrahydro-thieno[2,3-b][1,6]naphthyridine-2-carboxylic acid phenylamide] reads under 5 µM; that for `CN1CCc2nc3sc(C(=O)Nc4ccccc4)c(N)c3c(-c3ccccc3)c2C1` [Compound 49, 3-Amino-6-methyl-4-phenyl-5,6,7,8-tetrahydro-thieno[2,3-b][1,6]naphthyridine-2-carboxylic acid phenylamide], under 5 µM.
As for `COc1ccc(NC(=O)c2sc3nc4c(c(-c5ccccc5)c3c2N)CN(C)CC4)cc1` [Compound 50, 3-Amino-6-methyl-4-phenyl-5,6,7,8-tetrahydro-thieno[2,3-b][1,6]naphthyridine-2-carboxylic acid (4-methoxy-phenyl)-amide], the EC50 is under 5 µM.
For the molecule `CC(=O)c1ccc(NC(=O)c2sc3nc4c(c(-c5ccccc5)c3c2N)CN(C)CC4)cc1` [Compound 51, 3-Amino-6-methyl-4-phenyl-5,6,7,8-tetrahydro-thieno[2,3-b][1,6]naphthyridine-2-carboxylic acid (4-acetyl-phenyl)-amide], the half-maximal effective concentration (EC50) was under 5 µM.
On to `Nc1c(C(=O)Nc2nnc(-c3ccccc3)s2)sc2nc3c(cc12)CNCCC3` [Compound 52, 3-Amino-6,7,8,9-tetrahydro-5H-1-thia-6,10-diaza-cyclohepta[f]indene-2-carboxylic acid (5-phenyl-[1,3,4]thiadiazol-2-yl)-amide hydrochloride], for which the EC50 was under 5 µM.
As for `Nc1c(C(=O)Nc2nnc(-c3ccccc3)s2)sc2nc3c(cc12)CCCC3` [Compound 53, 3-Amino-5,6,7,8-tetrahydro-thieno[2,3-b]quinoline-2-carboxylic acid (5-phenyl-[1,3,4]thiadiazol-2-yl)-amide], the half-maximal effective concentration (EC50) was under 5 µM.
Same read-out and setting: the figure for `COc1ccc(-c2cc(-c3ccc(F)cc3)nc3sc(C(N)=O)c(N)c23)cc1OC` [Compound 54, 3-Amino-4-(3,4-dimethoxy-phenyl)-6-(4-fluoro-phenyl)-thieno[2,3-b]pyridine-2-carboxylic acid amide] is under 5 µM; for `CC(=O)N1CCc2nc3sc(C(=O)Nc4ccc(C(C)(C)C)cc4)c(N)c3c(C(F)(F)F)c2C1` [Compound 56, 6-Acetyl-3-amino-4-trifluoromethyl-5,6,7,8-tetrahydro-thieno[2,3-b][1,6]naphthyridine-2-carboxylic acid (4-tert-butyl-phenyl)-amide] it is under 5 µM.
Consider `CCOC(=O)c1c(NC(=O)c2sc3nc4c(cc3c2N)CN(C)CC4)sc2c1CCCC2` [Compound 57, 2-[(3-Amino-6-methyl-5,6,7,8-tetrahydro-thieno[2,3-b][1,6]naphthyridine-2-carbonyl)-amino]-4,5,6,7-tetrahydro-benzo[b]thiophene-3-carboxylic acid ethyl ester], for which the EC50 is under 5 µM.
Regarding `COc1ccccc1NC(=O)c1sc2nc3c(cc2c1N)CN(C)CC3` [Compound 58, 3-Amino-6-methyl-5,6,7,8-tetrahydro-thieno[2,3-b][1,6]naphthyridine-2-carboxylic acid (2-methoxy-phenyl)-amide], the half-maximal effective concentration (EC50) was under 5 µM.
